Results on 42 compounds are retold here after US7943628B2, “Pyrimidine derivatives” (Pfizer Limited, priority 2005, dated 2011).

For the first test, the target named is T1, histamine H4 receptor (Homo sapiens, UniProt Q9H3N8).
T1 construct: expressed in transfected cells; host or cells: CHO cells
T1 sequence (Q9H3N8 whole entry): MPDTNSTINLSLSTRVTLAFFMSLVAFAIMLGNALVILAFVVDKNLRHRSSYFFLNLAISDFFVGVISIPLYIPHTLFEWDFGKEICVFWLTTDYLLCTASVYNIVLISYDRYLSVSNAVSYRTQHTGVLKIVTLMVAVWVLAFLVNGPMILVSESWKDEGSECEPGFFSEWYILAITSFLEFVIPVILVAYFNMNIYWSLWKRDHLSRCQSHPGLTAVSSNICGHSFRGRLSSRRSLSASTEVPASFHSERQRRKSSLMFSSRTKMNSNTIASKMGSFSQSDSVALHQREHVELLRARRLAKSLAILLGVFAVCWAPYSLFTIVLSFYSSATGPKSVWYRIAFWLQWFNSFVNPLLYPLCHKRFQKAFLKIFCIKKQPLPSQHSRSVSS
As to the kind of experiment: H4 binding, method 1 ([3H]-histamine filtration binding on CHO cell membranes). The conditions noted are these: 1.5 h. As to the method: Cell pellets from CHO cells expressing the histamine H4 receptor were homogenised in ice-cold 50 mM Tris-HCl/0.5 mM CaCl2 buffer containing a protease inhibitor cocktail (Roche®, United Kingdom) using a ground glass homogeniser. Homogenates were centrifuged at 48000 g for 30 min at 4° C. The membrane pellet was resuspended in fresh buffer and the centrifugation step was repeated as described above. The membrane pellet was resuspended in 50 mM Tris-HCl in the same volume as the original cell pellet. Aliquots of membrane preparations were stored at −80° C. and were used for [^3H]-Histamine binding experiments.
Cell membranes (20-35 μg/well) were incubated for 90 minutes shaking at room temperature with 3 nM [2,5-^3H]Histamine dihydrochloride (30-60 Ci/mmol) in 50 mM Tris-HCl (pH 7.4), with or without competing H4 ligands. The reaction was terminated by rapid filtration through 0.5% polyethylenimine-soaked Unifilter GF/B plates (Packard) followed by three washes with 1 ml ice-cold 50 mM Tris-HCl. Filters were dried for 45 min at 45° C. and bound radiolabel was determined using scintillation counting techniques. Non-specific binding was defined with 10 μM JNJ7777120.
By inhibition is commonly meant the relative decrease from the control value, in per cent. Lower therefore signals a weak effect. The compound `CN1CCN(c2cc(NC(C)(C)C)nc(N)n2)CC1` [Example 223, N^4-(tert-Butyl)-6-(4-methylpiperazin-1-yl)pyrimidine-2,4-diamine] displayed an inhibition at 10 µM of 13%.

The same test, now with this note: H4 binding, method 1; Ki calculated from IC50 (Cheng-Prussoff).
For orientation: Ki means the equilibrium dissociation constant of an inhibitor or competing ligand from its target. Turning to `CN1C[C@@H]2C[C@H]1CN2c1cc(NCC(C)(C)C)nc(N)n1` [Example 191, N^4-(2,2-Dimethylpropyl)-6-[(1S,4S)-5-methyl-2,5-diazabicyclo[2.2.1]hept-2-yl]pyrimidine-2,4-diamine], the Ki is 28.2 nM.
Same read-out and setting: with `CC(C)(C)CNc1cc(N2CC(N3CCCC3)C2)ncn1` [Example 192, N-(2,2-Dimethylpropyl)-6-(3-pyrrolidin-1-ylazetidin-1-yl)pyrimidin-4-amine] the figure was 28.7 nM; with `CN(C)CCNc1cc(NCC2CC2)ncn1` [Example 194, N-(Cyclopropylmethyl)-N′-[2-(dimethylamino)ethyl]pyrimidine4,6-diamine], 32.4 nM; with `CCC(C)CNc1cc(N2CC[C@@H](N)C2)nc(N)n1` (stereo partly drawn) [Example 195, 6-[(3R)-3-Aminopyrrolidin-1-yl]-N^4-(2-methylbutyl)pyrimidine-2,4-diamine], 32.6 nM.
Same read-out and setting: with `CNC1(C)CN(c2cc(NCC3CC3)nc(N)n2)C1` [Example 196, N^4-(Cyclopropylmethyl)-6-[3-methyl-3-(methylamino)azetidin-1-yl]pyrimidine-2,4-diamine] the figure was 33.1 nM; with `CCNc1cc(N2CC(N3CCCC3)C2)nc(N)n1` [Example 197, N^4-Ethyl-6-(3-pyrrolidin-1-ylazetidin-1-yl)pyrimidine-2,4-diamine], 33.2 nM; with `CC(C)Nc1cc(N2CCCN(C)CC2)nc(N)n1` [Example 198, N^4-isoPropyl-6-(4-methyl-1,4-diazepan-1-yl)pyrimidine-2,4-diamine], 33.6 nM.
On the same count and under the same terms, for `CN[C@@H]1CCN(c2cc(NC3CCC3)nc(N)n2)C1` [Example 199, N^4-Cyclobutyl-6-[(3R)-3-(methylamino)pyrrolidin-1-yl]pyrimidine-2,4-diamine] the value was 33.9 nM.
In the case of `CC(C)(C)CNc1cc(N2CCC(N)CC2)nc(N)n1` [Example 201, 6-(4-Aminopiperidin-1-yl)-N^4-(2,2-dimethylpropyl)pyrimidine-2,4-diamine], the inhibition constant Ki is 35 nM.
Consider `CN[C@@H]1CCN(c2cc(NC(C)C)ncn2)C1` [Example 202, N-Isopropyl-6-[(3R)-3-(methylamino)pyrrolidin-1-yl]pyrimidin-4-amine], for which the Ki is 36.5 nM.
Still for that read-out and setting: with `CN[C@@H]1CCN(c2cc(NC3CC3)ncn2)C1` [Example 203, N-Cyclopropyl-6-[(3R)-3-(methylamino)pyrrolidin-1-yl]pyrimidin-4-amine] the figure was 37.9 nM; with `CN[C@H]1CCN(c2cc(NCC3CC3)nc(N)n2)C1` [Example 204, N^4-(Cyclopropylmethyl)-6-[(3S)-3-(methylamino)pyrrolidin-1-yl]pyrimidine-2,4-diamine], 39 nM.
For the compound `CCNc1cc(N2CC[C@H](NC)C2)nc(N)n1` [Example 205, N^4-Ethyl-6-[(3S)-3-(methylamino)pyrrolidin-1-yl]pyrimidine-2,4-diamine], the inhibition constant Ki was 39.3 nM.
Regarding `CCCNc1cc(N2CC(NC)C2)ncn1` [Example 206, 6-[3-(Methylamino)azetidin-1-yl]-N-propylpyrimidin-4-amine], the Ki is 39.9 nM.
The same measure, in the same setting: with `CN[C@H]1CCN(c2cc(NC(C)(C)C)nc(N)n2)C1` [Example 207, N^4-(tert-Butyl)-6-[(3S)-3-(methylamino)pyrrolidin-1-yl]pyrimidine-2,4-diamine] the figure was 43.3 nM.
On the same count and under the same terms, for `CNc1cc(N2CCNCC2)nc(N)n1` [Example 208, N^4-Methyl-6-piperazin-1-ylpyrimidine-2,4-diamine] the value was 45.1 nM; for `CNCC1CN(c2cc(NCC(C)(C)C)nc(N)n2)C1` [Example 209, N^4-(2,2-Dimethylpropyl)-6-{3-[(methylamino)methyl]azetidin-1-yl}pyrimidine-2,4-diamine], 46.4 nM; for `Nc1nc(NCC2CC2)cc(N2C[C@@H]3CCCN[C@@H]3C2)n1` [Example 210, N^4-(Cyclopropylmethyl)-6-[(4aS,7aS)-octahydro-6H-pyrrolo[3,4-b]pyridin-6-yl]pyrimidine-2,4-diamine], 48.9 nM.
The same measure, in the same setting: for `CN[C@H]1CCN(c2cc(NCCC(C)(C)C)nc(N)n2)C1` [Example 211, N^4-(3,3-Dimethylbutyl)-6-[(3S)-3-(methylamino)pyrrolidin-1-yl]pyrimidine-2,4-diamine] the value was 49.3 nM; for `NCCNc1cc(NCC2CC2)nc(N)n1` [Example 212, N^4-(2-Aminoethyl)-N^6-(cyclopropylmethyl)pyrimidine-2,4,6-triamine], 50 nM; for `C[C@H]1CN(c2cc(NCc3ccccc3F)nc(N)n2)CCN1` [Example 213, N^4-(2-Fluorobenzyl)-6-[(3S)-3-methylpiperazin-1-yl]pyrimidine-2,4-diamine], 52.9 nM.
Consider `CCNc1cc(N2CCNCC2)nc(N)n1` [Example 214, N^4-Ethyl-6-piperazin-1-ylpyrimidine-2,4-diamine], for which the Ki is 54.4 nM.
Take `Nc1nc(NCC2CC2)cc(N2CC[C@@H](N)C2)n1` [Example 215, 6-[(3R)-3-Aminopyrrolidin-1-yl]-N^4-(cyclopropylmethyl)pyrimidine-2,4-diamine]: the Ki was 57.3 nM.
Take `CC(C)CNc1cc(N2CC[C@@H](N)C2)nc(N)n1` [Example 216, 6-[(3R)-3-Aminopyrrolidin-1-yl]-N^4-isobutylpyrimidine-2,4-diamine]: the Ki is 70.6 nM.
Consider `CC(C)CNc1cc(N2C[C@H]3CNC[C@H]3C2)nc(N)n1` [Example 217, 6-[(3aR*,6aS*)-Hexahydropyrrolo[3,4-c]pyrrol-2(1H)-yl]-N^4-isobutylpyrimidine-2,4-diamine], for which the Ki is 80.6 nM.
Same read-out and setting: with `Nc1nc(NCC2CCCC2)cc(N2CC[C@@H](N)C2)n1` [Example 218, 6-[(3R)-3-Aminopyrrolidin-1-yl]-N^4-(cyclopentylmethyl)pyrimidine-2,4-diamine] the figure was 80.7 nM.
As to `CCCNc1cc(N2CC[C@@H](N)C2)nc(N)n1` [Example 219, 6-[(3R)-3-Aminopyrrolidin-1-yl]-N^4-propylpyrimidine-2,4-diamine], the inhibitory constant (Ki) is 82.3 nM.
`NCCNc1cc(NCC2CC2)ncn1` [Example 220, N-(2-Aminoethyl)-N′-(cyclopropylmethyl)pyrimidine-4,6-diamine]: the Ki is 88 nM.
For the compound `CNc1cc(N2CC[C@@H](NC)C2)nc(N)n1` [Example 221, N^4-Methyl-6-[(3R)-3-(methylamino)pyrrolidin-1-yl]pyrimidine-2,4-diamine], the inhibitory constant (Ki) was 90.3 nM.
In the case of `CC(C)(C)CNc1cc(NC2C3CNCC32)nc(N)n1` (stereo not drawn) [Example 222, N^4-[(1R*,5S*,6s*)-3-Azabicyclo[3.1.0]hex-6-yl]-N^6-(2,2-dimethylpropyl)pyrimidine-2,4,6-triamine], the Ki was 95.2 nM.
As for `CN1CCCN(c2cc(NC3CC3)ncn2)CC1` [Example 224, N-Cyclopropyl-6-(4-methyl-1,4-diazepan-1-yl)pyrimidin-4-amine], the Ki was 101 nM.
Regarding `CC(C)(C)CCNc1cc(N2CC[C@@H](N)C2)nc(N)n1` [Example 225, 6-[(3R)-3-Aminopyrrolidin-1-yl]-N^4-(3,3-dimethylbutyl)pyrimidine-2,4-diamine], the Ki was 102 nM.
The same measure, in the same setting: with `CC(C)NC1CN(c2cc(NCC(C)(C)C)ncn2)C1` [Example 226, N-(2,2-Dimethylpropyl)-6-[3-(isopropylamino)azetidin-1-yl]pyrimidin-4-amine] the figure was 113 nM; with `CNCC1CN(c2cc(NCC3CC3)nc(N)n2)C1` [Example 227, N^4-(Cyclopropylmethyl)-6-{3-[(methylamino)methyl]azetidin-1-yl}pyrimidine-2,4-diamine], 115 nM; with `C[C@H]1CN(c2cc(NCc3cccc(F)c3)nc(N)n2)CCN1` [Example 228, N^4-(3-Fluorobenzyl)-6-[(3S)-3-methylpiperazin-1-yl]pyrimidine-2,4-diamine], 117 nM.
For `CC(C)CNc1cc(N2CCC(N)CC2)nc(N)n1` [Example 229, 6-(4-Aminopiperidin-1-yl)-N^4-isobutylpyrimidine-2,4-diamine], the inhibition constant (Ki) is 127 nM.
`Nc1nc(NC2CCC2)cc(N2C[C@H]3CCCN[C@H]3C2)n1` [Example 230, N^4-Cyclobutyl-6-[(4aR,7aR)-octahydro-6H-pyrrolo[3,4-b]pyridin-6-yl]pyrimidine-2,4-diamine]: the Ki is 127 nM.
Take `CC(C)Nc1cc(N2CCC3NCCC3C2)nc(N)n1` (stereo not drawn) [Example 231, N^4-Isopropyl-6-(octahydro-5H-pyrrolo[3,2-c]pyridin-5-yl)pyrimidine-2,4-diamine]: the Ki was 131 nM.
The same measure, in the same setting: with `CCCNc1cc(N2CC(N)C2)nc(N)n1` [Example 232, 6-(3-Aminoazetidin-1-yl)-N^4-propylpyrimidine-2,4-diamine] the figure was 13.9 nM.
Still for that read-out and setting: with `CNC1CN(c2cc(NCc3ccc(F)c(F)c3)nc(N)n2)C1` [Example 233, N^4-(3,4-Difluorobenzyl)-6-[3-(methylamino)azetidin-1-yl]pyrimidine-2,4-diamine] the figure was 30.4 nM; with `CC(C)Nc1cc(N2CCC(N)CC2)nc(N)n1` [Example 234, 6-(4-Aminopiperidin-1-yl)-N^4-isopropylpyrimidine-2,4-diamine], 177 nM.
